Patent US11746100B2 (GLOBAL BLOOD THERAPEUTICS, INC., priority 2020, dated 2023)

biological target: T1, human ferroportin (Homo sapiens, UniProt Q9NP59); assay: Biological in-vitro ferroportin internalization assay (luciferase reporter); type: cell-based; conditions: average pEC50; stably-transfected CHO cell line expressing human ferroportin tagged to a luciferase reporter; 6 h incubation with test compound
T1 construct: luciferase reporter (read with the Nano-Glo Luciferase Assay System); expressed in transfected cells; host or cells: CHO cells, stably transfected, expression induced with doxycycline
T1 sequence (Q9NP59 1-571): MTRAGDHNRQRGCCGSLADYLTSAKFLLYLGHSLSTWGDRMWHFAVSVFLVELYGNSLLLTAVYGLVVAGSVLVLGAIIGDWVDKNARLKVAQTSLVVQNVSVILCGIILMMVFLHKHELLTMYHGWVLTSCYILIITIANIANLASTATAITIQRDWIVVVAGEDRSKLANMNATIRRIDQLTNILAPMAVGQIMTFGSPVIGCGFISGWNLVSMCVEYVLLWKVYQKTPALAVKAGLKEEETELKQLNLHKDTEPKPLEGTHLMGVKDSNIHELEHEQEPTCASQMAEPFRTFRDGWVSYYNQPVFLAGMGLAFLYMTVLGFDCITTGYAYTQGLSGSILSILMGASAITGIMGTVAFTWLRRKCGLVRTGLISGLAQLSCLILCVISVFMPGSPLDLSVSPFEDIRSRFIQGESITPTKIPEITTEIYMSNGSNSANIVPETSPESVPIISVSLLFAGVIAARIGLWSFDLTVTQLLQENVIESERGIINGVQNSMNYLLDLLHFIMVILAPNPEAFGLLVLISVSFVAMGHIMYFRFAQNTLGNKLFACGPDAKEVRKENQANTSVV
How it was run: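 Stably transfected CHO cells expressing luciferase-tagged human ferroportin, plated 24 h with ferric ammonium citrate and induced with doxycycline for 24 h. Compounds incubated 6 h, then luciferase activity measured by Nano-Glo; average pEC50 reported.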

SMILES | pEC50
COc1cc2c(cn1)N(C(=O)CN(C)c1nc(-c3cc(OCCO)ccn3)nc3c1CCC3)CC2 [Compound 375, 2-({2-[4-(2-hydroxyethoxy)pyridin-2-yl]-5H,6H,7H-cyclopenta[d]pyrimidin-4-yl}(methyl)amino)-1-{5-methoxy-1H,2H,3H-pyrrolo[2,3-c]pyridin-1-yl}ethan-1-one] | 8
CN(CC(=O)Nc1cccc(F)c1)c1nc(-c2cc(OCC3(O)CC3)ccn2)nc2c1CCC2 [Compound 307, N-(3-fluorophenyl)-2-[(2-{4-[(1-hydroxycyclopropyl)methoxy]pyri-din-2-yl}-5H,6H,7H-cyclopenta[d]pyrimidin-4-yl)(methyl)amino]acetamide] | 7.4
CN(CC(=O)NC(C)(C)C)c1nc(-c2ccc(F)cn2)nc2c1CCC2 [Compound 299, N-tert-butyl-2-{[2-(5-fluoropyridin-2-yl)-5H,6H,7H-cyclopenta[d]pyrimidin-4-yl](methyl)amino}acetamide] | 6.1
COc1ccc(NC(=O)CN(C)c2nc(-c3cc(OCCO)ccn3)nc3c2CCC3)nn1 [Compound 285, 2-({2-[4-(2-hydroxyethoxy)pyridin-2-yl]-5H,6H,7H-cyclopenta[d]pyrimidin-4-yl}(methyl)amino)-N-(6-methoxypyridazin-3-yl)acetamide] | 7.8
CN(CC(=O)NC(C)(C)C)c1nc(-c2cc(OC[C@H]3CCCN3C)ccn2)nc2c1CCC2 [Compound 411, N-tert-butyl-2-{methyl[2-(4-{[(2R)-1-methylpyrrolidin-2-yl]methoxy}pyridin-2-yl)-5H,6H,7H-cyclopenta[d]pyrimidin-4-yl]amino}acetamide] | 8.2
CN(CC(=O)NC1CCCC1)c1nc(-c2cn(C)cn2)nc2c1CCC2 [Compound 150, N-cyclopentyl-2-{methyl[2-(1-methyl-1H-imidazol-4-yl)-5H,6H,7H-cyclopenta[d]pyrimidin-4-yl]amino}acetamide] | 7.3
CN(C)CCOc1ccnc(-c2nc3c(c(N(C)CC(=O)N[C@@H]4CCOC4)n2)CCC3)c1 [Compound 424, 2-[(2-{4-[2-(dimethylamino)ethoxy]pyridin-2-yl}-5H,6H,7H-cyclopenta[d]pyrimidin-4-yl)(methyl)amino]-N-[(3R)-oxolan-3-yl]acetamide] | 7
CSCCOc1ccnc(-c2nc3c(c(N(C)CC(=O)NC(C)(C)C)n2)CCC3)c1 [Compound 506, N-tert-butyl-2-[methyl(2-{4-[2-(methylsulfanyl)ethoxy]pyridin-2-yl}-5H,6H,7H-cyclopenta[d]pyrimidin-4-yl)amino]acetamide] | 8.0
CN(CC(=O)NC(C)(C)C)c1nc(-c2cc(OCCn3ccnc3)ccn2)nc2c1CCC2 [Compound 465, N-tert-butyl-2-[(2-{4-[2-(1H-imidazol-1-yl)ethoxy]pyridin-2-yl}-5H,6H,7H-cyclopenta[d]pyrimidin-4-yl)(methyl)amino]acetamide] | 8.3
CN(CC(=O)Nc1ccc(OC(F)(F)F)nc1)c1nc(-c2cc3ccccc3cn2)nc2c1CCC2 [Compound 234, 2-{[2-(isoquinolin-3-yl)-5H,6H,7H-cyclopenta[d]pyrimidin-4-yl](methyl)amino}-N-[6-(trifluoromethoxy)pyridin-3-yl]acetamide] | 6.4
COc1ccc(NC(=O)CN(C)c2nc(-c3cc4ccccc4cn3)nc3c2CCC3)cn1 [Compound 227, 2-{[2-(isoquinolin-3-yl)-5H,6H,7H-cyclopenta[d]pyrimidin-4-yl](methyl)amino}-N-(6-methoxypyridin-3-yl)acetamide] | 7.2
CN(c1nc(-c2ccccn2)nc2c1CCC2)[C@H](COC(C)(C)C)C(=O)NC(C)(C)C [Compound 121, (2R)-3-(tert-butoxy)-N-tert-butyl-2-{methyl[2-(pyridin-2-yl)-5H,6H,7H-cyclopenta[d]pyrimidin-4-yl]amino}propanamide] | 7.9
COc1ccc(NC(=O)CN(C)c2nc(-c3cc(OCC(C)(C)O)ccn3)nc3c2CCC3)nc1 [Compound 214, 2-({2-[4-(2-hydroxy-2-methylpropoxy)pyridin-2-yl]-5H,6H,7H-cyclopenta[d]pyrimidin-4-yl}(methyl)amino)-N-(5-methoxypyridin-2-yl)acetamide] | 7.8
COc1ccc(NC(=O)CN(C)c2nc(-c3cc(OCCO)ccn3)nc3c2CCC3)cn1 [Compound 187, 2-({2-[4-(2-hydroxyethoxy)pyridin-2-yl]-5H,6H,7H-cyclopenta[d]pyrimidin-4-yl}(methyl)amino)-N-(6-methoxypyridin-3-yl)acetamide] | 7.9
[2H]C([2H])([2H])N(CC(=O)NC(C)(C)C)c1nc(-c2cc(OCC(C)(C)O)ccn2)nc2c1CCC2 [Compound 509, N-tert-butyl-2-({2-[4-(2-hydroxy-2-methylpropoxy)pyridin-2-yl]-5H,6H,7H-cyclopenta[d]pyrimidin-4-yl}((2H3)methyl)amino)acetamide] | 8.2
CN(CC(=O)NC(C)(C)C)c1nc(-c2cn3ccccc3n2)nc2c1CCC2 [Compound 166, N-tert-butyl-2-[(2-{imidazo[1,2-a]pyridin-2-yl}-5H,6H,7H-cyclopenta[d]pyrimidin-4-yl)(methyl)amino]acetamide] | 6.7
COc1ccnc(-c2nc3c(c(N(C)CC(=O)N[C@H]4CCOC4)n2)CCC3)c1 [Compound 371, 2-{[2-(4-methoxypyridin-2-yl)-5H,6H,7H-cyclopenta[d]pyrimidin-4-yl](methyl)amino}-N-[(3S)-oxolan-3-yl]acetamide] | 7.5
CN(CC(=O)Nc1ccc(F)nc1)c1nc(-c2cc(OC(F)F)ccn2)nc2c1CCC2 [Compound 216, 2-({2-[4-(difluoromethoxy)pyridin-2-yl]-5H,6H,7H-cyclopenta[d]pyrimidin-4-yl}(methyl)amino)-N-(6-fluoropyridin-3-yl)acetamide] | 6.6
CN(c1nc(-c2ccccn2)nc2c1CCC2)[C@H](CO)C(=O)NC(C)(C)C [Compound 124, (2R)—N-tert-butyl-3-hydroxy-2-{methyl[2-(pyridin-2-yl)-5H,6H,7H-cyclopenta[d]pyrimidin-4-yl]amino}propanamide] | 7
CN1CCC(NC(=O)CN(C)c2nc(-c3ccccn3)nc3c2CCC3)C1=O (centres unmarked) [Compound 31, N-(1-methyl-2-oxopyrrolidin-3-yl)-2-{methyl[2-(pyridin-2-yl)-5H,6H,7H-cyclopenta[d]pyrimidin-4-yl]amino}acetamide] | 6.2
Cc1ccnc(-c2nc3c(c(N(C)CC(=O)NC(C)(C)C)n2)CCC3)c1 [Compound 24, N-tert-butyl-2-{methyl[2-(4-methylpyridin-2-yl)-5H,6H,7H-cyclopenta[d]pyrimidin-4-yl]amino}acetamide] | 7.6
COc1cccnc1-c1nc2c(c(N(C)CC(=O)NC(C)(C)C)n1)CCC2 [Compound 180, N-tert-butyl-2-{[2-(3-methoxypyridin-2-yl)-5H,6H,7H-cyclopenta[d]pyrimidin-4-yl](methyl)amino}acetamide] | 5.2
CN(CC(=O)NC1CCOCC1)c1nc(-c2cc(OCCO)ccn2)nc2c1CCC2 [Compound 140, 2-({2-[4-(2-hydroxyethoxy)pyridin-2-yl]-5H,6H,7H-cyclopenta[d]pyrimidin-4-yl}(methyl)amino)-N-(oxan-4-yl)acetamide] | 7
CN1CC(Oc2ccnc(-c3nc4c(c(N(C)CC(=O)NC(C)(C)C)n3)CCC4)c2)C1 [Compound 416, N-tert-butyl-2-[methyl(2-{4-[(1-methylazetidin-3-yl)oxy]pyridin-2-yl}-5H,6H,7H-cyclopenta[d]pyrimidin-4-yl)amino]acetamide] | 8
c1ccc(-c2nc3c(c(N4CC5CC4CO5)n2)CCC3)nc1 (centres unmarked) [Compound 72, 5-[2-(pyridin-2-yl)-5H,6H,7H-cyclopenta[d]pyrimidin-4-yl]-2-oxa-5-azabicyclo[2.2.1]heptane] | 5.5
Cc1ccnc(-c2nc3c(c(N4CCCO[C@H]5CCC[C@@H]54)n2)CCC3)c1 [Compound 45, 2-{4-[(5aS,8aS)-octahydro-2H-cyclopenta[b][1,4]oxazepin-5-yl]-5H,6H,7H-cyclopenta[d]pyrimidin-2-yl}-4-methylpyridine] | 7.2
Cc1ccnc(-c2nc3c(c(N4CC(C(=O)NC5CCCCC5)C4)n2)CCC3)c1 [Compound 30, N-cyclohexyl-1-[2-(4-methylpyridin-2-yl)-5H,6H,7H-cyclopenta[d]pyrimidin-4-yl]azetidine-3-carboxamide] | 5.7
C[C@H](C(=O)NC1CCCCC1)N(C)c1nc(-c2ccccn2)nc2c1CCC2 [Compound 108, (2R)—N-cyclohexyl-2-{methyl[2-(pyridin-2-yl)-5H,6H,7H-cyclopenta[d]pyrimidin-4-yl]amino}propanamide] | 7.6
CN(CC(=O)Nc1cncc(F)c1)c1nc(-c2cc3ccccc3cn2)nc2c1CCC2 [Compound 240, N-(5-fluoropyridin-3-yl)-2-{[2-(isoquinolin-3-yl)-5H,6H,7H-cyclopenta[d]pyrimidin-4-yl](methyl)amino}acetamide] | 7.1
